From patent publication US20150259344A1, “IMIDAZOLE DERIVATIVE” (DAINIPPON SUMITOMO PHARMA CO., LTD., priority 2012, published 2015)
Read-outs that look alike come from different tables or passages of the source.

Biological target: T1, human α7 nAChR (Homo sapiens, UniProt P36544)
T1 construct: expressed in transfected cells
Assay: Evaluation of PAM activity with human α7 nACh receptor stably expressing cells (aequorin luminescence, FDSS7000)
Type: cell-based
Conditions: for activity at 10 µM: read-out: α7PAM (%) @10 μM; for activity at 1 µM: 1 μM test compound (values marked *, footnote of Table 25), read-out: α7PAM (%) @1 μM
Experimental: Evaluation of PAM activity with human α7 nACh receptor stably expressing cells
(1) Human α7 nAChR stably expressing cells
Human α7 nAChR stably expressing cells were generated and cultured.
Thus, the cells were subcultured.
Seven days after subculturing, the cells were treated with TrypLE Express to collect them when they were about 80% confluent.
On the next day after seeding, Viviren (cat#E649X, Promega, Madison, Wis., USA) was added to the medium so that the final concentration could be 4 μM (15 μL/well). The plates were centrifuged and then placed in the dark for 4 hours at room temperature.
(2) Preparation of the Test Samples
Each of the test compounds was dissolved in DMSO to prepare each test sample at a concentration of 1000-fold the final concentration. To the solution was added Hanks/20 mM HEPES/0.2% BSA (cat#A3803, Sigma, St. Louis, Mo., USA), and the concentration was adjusted to 6-fold the final concentration.
(3) Evaluation of PAM Activity
FDSS7000 (Hamamatsu Photonics) was used to detect the luminescence signal evoked by α7 nAChR stimulation. The cells and a luminescent substrate were put on a plate, and the test sample was added thereto. […] The ratio of the RLU (Max-Min) of the test-compound-containing wells to that of the control wells was defined as PAM activity.

[1] = 10 μM test compound, ACh at EC20, ratio of RLU (Max-Min) to control wells
[2] = ACh at EC20, ratio of RLU (Max-Min) to control wells
[3] = GH4-C1, 10 μM test compound, ratio of RLU (Max-Min) of test wells to control wells after ACh at EC20, GH4C1 cells expressing human α7 nAChR and aequorin

T1 sequence (P36544 23-502): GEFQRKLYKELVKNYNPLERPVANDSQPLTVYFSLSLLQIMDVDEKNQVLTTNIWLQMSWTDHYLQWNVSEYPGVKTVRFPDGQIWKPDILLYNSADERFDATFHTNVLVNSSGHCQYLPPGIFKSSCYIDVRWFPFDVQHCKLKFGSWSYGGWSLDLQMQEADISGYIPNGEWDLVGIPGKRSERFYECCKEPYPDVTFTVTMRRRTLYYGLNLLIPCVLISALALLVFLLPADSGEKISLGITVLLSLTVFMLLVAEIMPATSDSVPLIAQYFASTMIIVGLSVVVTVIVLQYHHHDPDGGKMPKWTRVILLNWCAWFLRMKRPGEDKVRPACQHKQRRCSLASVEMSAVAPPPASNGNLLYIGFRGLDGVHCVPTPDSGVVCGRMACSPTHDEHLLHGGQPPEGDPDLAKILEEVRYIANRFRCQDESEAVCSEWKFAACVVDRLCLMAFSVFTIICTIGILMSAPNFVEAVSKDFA

Row | activity at 10 µM [1] | SMILES | other results
1 | 581% | O=C(N[C@H]1CC[C@@H](n2cnc(-c3ccccc3)c2Cl)CC1)C1CC(F)(F)C1 [Example 188] | –
2 | 187% | CC(C)(F)C(=O)N[C@H]1CC[C@@H](n2cnc(-c3cccc(C(F)(F)F)c3)c2Cl)CC1 [Example 193] | –
3 | 142% | O=C(N[C@H]1CC[C@@H](n2cnc(-c3cccc(C(F)(F)F)c3)c2Cl)CC1)C1CCC1 [Example 195] | –
4 | 498% | O=C(N[C@H]1CC[C@@H](n2cnc(-c3ccc(C(F)(F)F)cc3)c2Cl)CC1)C1CCC1 [Example 196] | –
5 | 637% | CC(C)(F)C(=O)N[C@H]1CC[C@@H](n2cnc(-c3ccccc3)c2C#N)CC1 [Example 197, N-[cis-4-(5-cyano-4-phenyl-1H-imidazol-1-yl)cyclohexyl]-2-fluoro-2-methylpropanamide] | –
6 | 799% | N#Cc1c(-c2ccccc2)ncn1[C@H]1CC[C@@H](NC(=O)C2CCC2)CC1 [Example 198] | –
7 | 224% | CC(C)(F)C(=O)N[C@H]1CC[C@@H](n2cnc(-c3ccc(C(F)(F)F)cc3)c2C#N)CC1 [Example 201, N-(cis-4-{5-cyano-4-[4-(trifluoromethyl)phenyl]-1H-imidazol-1-yl}cyclohexyl)-2-fluoro-2-methylpropanamide] | –
8 | 263% | CC(C)(F)C(=O)N[C@H]1CC[C@@H](n2cnc(-c3cccc(C(F)(F)F)c3)c2C#N)CC1 [Example 202] | –
9 | 641% | N#Cc1c(-c2ccccc2)ncn1[C@H]1CC[C@@H](NC(=O)C2CC(F)(F)C2)CC1 [Example 203] | –
10 | 172% | O=C(N[C@H]1CC[C@H](n2cnc(-c3ccccc3)c2)CC1)C1CCCCC1 [Example 204] | –
11 | 110% | O=C(N[C@H]1CC[C@H](n2cnc(-c3ccccc3)c2)CC1)C1CCC(F)(F)CC1 [Example 205] | –
12 | 102% | O=C(N[C@H]1CC[C@H](n2cnc(-c3ccccc3)c2Cl)CC1)C1CCCCC1 [Example 206] | –
13 | 115% | O=C(N[C@H]1CC[C@H](n2cnc(-c3ccccc3)c2Cl)CC1)C1CCC(F)(F)CC1 [Example 207] | –

Further lines, the molecule ahead of its results:

Row | SMILES | activity at 10 µM [1] | other results
14 | O=C(C1CCC(F)(F)CC1)N1CCC(n2cnc(-c3ccc(F)c(F)c3)c2)CC1 [Example 139] | 274% | –
15 | O=C(c1ccc(F)cn1)N1CCC(n2cnc(-c3ccc(F)c(F)c3)c2)CC1 [Example 140] | 127% | –
16 | O=C(c1ccc(F)cn1)N1CCC(n2cnc(-c3ccc(Cl)cc3)c2)CC1 [Example 141] | 253% | –
17 | COC1CCC(C(=O)N2CCC(n3cnc(-c4ccccc4)c3)CC2)CC1 (centres unmarked) [Example 142] | 163% | –
18 | O=C(C1CCC(F)(F)CC1)N1CCC(n2cnc(-c3cccc(F)c3)c2)CC1 [Example 144] | 346% | –
19 | O=C(C1CCC(F)(F)CC1)N1CCC(n2cnc(-c3cccc(OC(F)F)c3)c2)CC1 [Example 145] | 363% | –
20 | O=C(C1CCC(F)(F)CC1)N1CCC(n2cnc(-c3ccc(OC(F)F)cc3)c2)CC1 [Example 146] | 572% | –
21 | CCOc1ccc(-c2cn(C3CCN(C(=O)C4CCC(F)(F)CC4)CC3)cn2)cc1 [Example 147] | 484% | –
22 | COc1ccc(-c2ncn(C3CCN(C(=O)C4CCC(F)(F)CC4)CC3)c2Cl)cc1 [Example 148] | 700% | –
23 | O=C(C1CCC(F)(F)CC1)N1CCC(n2cnc(-c3ccc(F)cc3)c2Cl)CC1 [Example 149] | 862% | –
24 | O=C(C1CCOCC1)N1CCC(n2cnc(-c3cccc(F)c3)c2Cl)CC1 [Example 150] | 137% | –
25 | O=C(C1CCOCC1)N1CCC(n2cnc(-c3ccc(F)cc3)c2Cl)CC1 [Example 151] | 155% | –
26 | O=C(C1CCC(F)(F)CC1)N1CCC(n2cnc(-c3ccccc3)c2Cl)CC1 [Example 152] | 945% | –
27 | N#Cc1c(-c2ccccc2)ncn1C1CCN(C(=O)C2CCCCC2)CC1 [Example 153] | 538% | –
28 | N#Cc1c(-c2ccc(F)cc2)ncn1C1CCN(C(=O)C2CCC(F)(F)CC2)CC1 [Example 154, 1-{1-[(4,4-difluorocyclohexyl)carbonyl]piperidin-4-yl}-4-(4-fluorophenyl)-1H-imidazole-5-carbonitrile] | 644% | –
29 | N#Cc1c(-c2cccc(F)c2)ncn1C1CCN(C(=O)C2CCC(F)(F)CC2)CC1 [Example 155] | 252% | –
30 | N#Cc1c(-c2ccccc2F)ncn1C1CCN(C(=O)C2CCC(F)(F)CC2)CC1 [Example 156, 1-{1-[(4,4-difluorocyclohexyl)carbonyl]piperidin-4-yl}-4-(2-fluorophenyl)-1H-imidazole-5-carbonitrile] | 522% | –
31 | N#Cc1c(-c2ccc(C(F)(F)F)cc2)ncn1C1CCN(C(=O)C2CCC(F)(F)CC2)CC1 [Example 157] | 236% | –
32 | N#Cc1c(-c2cccc(C(F)(F)F)c2)ncn1C1CCN(C(=O)C2CCC(F)(F)CC2)CC1 [Example 158] | 132% | –
33 | N#Cc1c(-c2ccc(Cl)cc2)ncn1C1CCN(C(=O)C2CCC(F)(F)CC2)CC1 [Example 159] | 692% | –
34 | N#Cc1c(-c2cccc(Cl)c2)ncn1C1CCN(C(=O)C2CCC(F)(F)CC2)CC1 [Example 160] | 367% | –
35 | CC(C)(C)C(=O)N[C@H]1CC[C@@H](n2cnc(-c3ccc(C(F)(F)F)cc3)c2)CC1 [Example 161] | – | activity at 1 µM [2]: 233%
36 | O=C(N[C@H]1CC[C@@H](n2cnc(-c3ccc(C(F)(F)F)cc3)c2)CC1)C1CCC(F)(F)CC1 [Example 162] | – | activity at 1 µM [2]: 323%
37 | CC(C)(C)C(=O)N[C@H]1CC[C@@H](n2cnc(-c3ccccc3)c2Cl)CC1 [Example 167] | 221% | –
38 | O=C(N[C@H]1CC[C@@H](n2cnc(-c3ccccc3)c2Cl)CC1)C1CCCCC1 [Example 168] | 829% | –

Row | SMILES | activity at 10 µM [1] | other results
39 | O=C(N[C@H]1CC[C@@H](n2cnc(-c3ccccc3)c2Cl)CC1)C1CCC(F)(F)CC1 [Example 169] | 454% | –
40 | O=C(N[C@H]1CC[C@@H](n2cnc(-c3ccccc3)c2Cl)CC1)C1CCCC1 [Example 170] | 530% | –
41 | O=C(N[C@H]1CC[C@@H](n2cnc(-c3ccccc3)c2Cl)CC1)C1CCC1 [Example 171] | 551% | –
42 | CC(C)(F)C(=O)N[C@H]1CC[C@@H](n2cnc(-c3ccccc3)c2Cl)CC1 [Example 172] | 480% | –
43 | O=C(N[C@H]1CC[C@@H](n2cnc(-c3ccccc3)c2Cl)CC1)C1(C(F)(F)F)CC1 [Example 174] | 224% | –
44 | CC(C)(F)C(=O)N[C@H]1CC[C@@H](n2cnc(-c3cccc(F)c3)c2Cl)CC1 [Example 175] | 397% | –
45 | O=C(N[C@H]1CC[C@@H](n2cnc(-c3cccc(F)c3)c2Cl)CC1)C1CCC1 [Example 176] | – | activity at 1 µM [2]: 258%
46 | O=C(N[C@H]1CC[C@@H](n2cnc(-c3cccc(F)c3)c2Cl)CC1)C1CCCC1 [Example 177] | – | activity at 1 µM [2]: 389%
47 | COc1ccc(-c2ncn([C@H]3CC[C@@H](NC(=O)C(C)(C)F)CC3)c2Cl)cc1Cl [Example 178] | 775% | –
48 | COc1ccc(-c2ncn([C@H]3CC[C@@H](NC(=O)C4CCC4)CC3)c2Cl)cc1Cl [Example 179] | 269% | –
49 | COc1ccc(-c2ncn([C@H]3CC[C@@H](NC(=O)C4CCCC4)CC3)c2Cl)cc1Cl [Example 180] | 375% | –
50 | O=C(N[C@H]1CC[C@@H](n2cnc(-c3ccc(F)cc3)c2Cl)CC1)C1CCC1 [Example 181] | 641% | –
51 | O=C(N[C@H]1CC[C@@H](n2cnc(-c3ccc(F)cc3)c2Cl)CC1)C1CCCC1 [Example 182] | – | activity at 1 µM [2]: 682%
52 | O=C(N[C@H]1CC[C@@H](n2cnc(-c3ccc(F)cc3)c2Cl)CC1)c1ccc(F)cc1 [Example 184] | – | activity at 1 µM [2]: 303%
53 | CC(C)(F)C(=O)N[C@H]1CC[C@@H](n2cnc(-c3ccccc3F)c2Cl)CC1 [Example 185] | 576% | –
54 | COc1cc(-c2ncn([C@H]3CC[C@@H](NC(=O)C(C)(C)F)CC3)c2Cl)ccc1F [Example 186] | 254% | –
55 | COc1cc(-c2ncn([C@H]3CC[C@@H](NC(=O)C4CCC4)CC3)c2Cl)ccc1F [Example 191] | – | activity at 1 µM [2]: 364%
56 | COc1cc(-c2ncn([C@H]3CC[C@@H](NC(=O)C4CCC4)CC3)c2Cl)c(Cl)cc1F [Example 192] | – | activity at 1 µM [2]: 274%
57 | CC(C)(C)C(=O)N[C@H]1CC[C@@H](n2cnc(-c3ccc(C(F)(F)F)cc3)c2C#N)CC1 [Example 199] | – | activity at 1 µM [2]: 230%
58 | CC(C)(C)C(=O)N[C@H]1CC[C@@H](n2cnc(-c3cccc(C(F)(F)F)c3)c2C#N)CC1 [Example 200] | – | activity at 1 µM [2]: 180%
59 | O=C(NC1CCCCC1)[C@H]1CC[C@H](n2cnc(-c3ccccc3)c2)CC1 [Example 231] | – | activity at 10 µM [3]: 149%
60 | CC(C)(C)NC(=O)[C@H]1CC[C@H](n2cnc(-c3ccccc3)c2)CC1 [Example 232] | – | activity at 10 µM [3]: 113%
61 | O=C(NC1CCCCC1)[C@H]1CC[C@H](n2cnc(-c3ccccc3)c2Cl)CC1 [Example 233] | – | activity at 10 µM [3]: 102%
62 | CC(C)(C)NC(=O)[C@H]1CC[C@H](n2cnc(-c3ccccc3)c2Cl)CC1 [Example 234] | – | activity at 10 µM [3]: 130%
